According to PMC5915715, “Inhibitors of both the N-methyl lysyl- and arginyl-demethylase activities of the JmjC oxygenases” (Philosophical Transactions of the Royal Society B: …, 2018):

T1: KDM4E (JMJD2E); KDM4E(1-377) (Homo sapiens, UniProt B2RXH2)
T1 construct: residues 1-377 (JmjN and JmjC domains); recombinant, E. coli BL21(DE3)-R3 with pRARE2
T1 sequence (B2RXH2 1-377): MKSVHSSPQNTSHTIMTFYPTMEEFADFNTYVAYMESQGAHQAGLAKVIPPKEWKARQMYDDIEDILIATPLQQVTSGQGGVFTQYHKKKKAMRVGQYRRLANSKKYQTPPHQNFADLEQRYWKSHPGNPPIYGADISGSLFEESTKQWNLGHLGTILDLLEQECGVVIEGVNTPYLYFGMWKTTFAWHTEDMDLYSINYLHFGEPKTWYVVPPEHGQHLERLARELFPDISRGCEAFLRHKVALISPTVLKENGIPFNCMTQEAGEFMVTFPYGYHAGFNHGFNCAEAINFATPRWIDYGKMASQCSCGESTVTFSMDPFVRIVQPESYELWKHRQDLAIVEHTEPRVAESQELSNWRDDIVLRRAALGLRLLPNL

B1: KDM4E (JMJD2E); KDM4E(1-377) (Homo sapiens) (protein)
chain: T1 sequence (B2RXH2 1-377)
notes: residues 1-377 (JmjN and JmjC domains); recombinant, E. coli BL21(DE3)-R3 with pRARE2

Target: T1, KDM4E (JMJD2E); KDM4E(1-377)
Assay: RapidFire MS demethylation assay
Assay type: biochemical
Details: KDM activity: 5 µM H3(1-15)K9me2, 0.25 µM enzyme, 10 µM Fe(II), 100 µM ascorbate, 10 µM 2OG, 50 mM HEPES pH 7.5, 15 min; iron chelator, may act by chelating iron in solution; unreliable (printed s.e.m)
Source text: RapidFire MS demethylation assay on KDM4E (JMJD2E); KDM4E(1-377)

With `O=C(O)CN(CCN(CC(=O)O)CC(=O)O)CC(=O)O` [EDTA] the “pIC50 ± s.e.m. / inhibition of H3(1-15)K9me2 demethylation” value was 5.82 ± 6.53 -log10(M).

Target: T1, KDM4E (JMJD2E); KDM4E(1-377)
Assay: RapidFire MS demethylation assay
Assay type: biochemical
Details: read-out: pIC50 ± s.e.m. / inhibition of H3(1-15)K9me2 demethylation (converted)

Compared with `CCN(CCN(C)C)C(=O)CNCc1cc(C(N)=O)ccn1` [KDOAM25], `CCN(CCN(C)C)C(=O)CNCc1cc(C(=O)O)ccn1` [KDM5-C49] is 87-fold lower in IC50: 182 µM for the first, 2.09 µM for the second.

`CC(C)c1c(-c2ccccc2)[nH]c2c(C#N)cnn2c1=O` [CPI-455] and `CN(C)CCCNC(=O)c1ccc(-c2cc(O)c3ncccc3c2)cc1` [ML324] are within 1.5-fold of each other in IC50: 4.47 µM for the first, 4.79 µM for the second.

`O=C(O)CC[C@@H](O)C(=O)O` [D-2HG] and `O=C(O)CC[C@H](O)C(=O)O` [L-2HG] are within 1.5-fold of each other in IC50: 11.5 µM for the first, 13.5 µM for the second.

First: O=C(O)CCC(=O)O [succinate]
Second: O=C(O)/C=C/C(=O)O [fumarate]
The IC50 of the first is 13-fold lower: 148 µM for the first, 1950 µM for the second.

Molecule `CC(=O)N(O)CCCCCNC(=O)CCC(=O)N(O)CCCCCNC(=O)CCC(=O)N(O)CCCCCN` [deferoxamine] has an IC50 of 2.4 µM.

Substrate: O=C(O)CCC(=O)C(=O)O
Assay: steady-state kinetics (supplement)
Assay type: biochemical, Homo sapiens
Details: 50 mM HEPES pH 7.5, Fe(II), ascorbate, approximate value, peptide substrate not stated

With B1 the Km was 10 µM.
